Data set [1] concerns human PMNs. As to the kind of experiment: CXCL8 induced human PMN chemotaxis inhibition. The data set is classed as cell-based. Particulars: hPMN chemotaxis, compound at 10^−7 M; for inhibition at 0.1 µM: Homo sapiens. The procedure:
(§1) The compounds of the invention of formula (I) were evaluated in vitro for their ability to inhibit chemotaxis of polymorphonucleate leukocytes (hereinafter referred to as PMNs) and monocytes induced by the fractions of IL-8 and GRO-α. For this purpose, in order to isolate the PMNs from heparinized human blood, taken from healthy adult volunteers, mononucleates were removed by means of sedimentation on dextran (according to the procedure disclosed by W. J. Ming et al., J. Immunol., 138, 1469, 1987) and red blood cells by a hypotonic solution. The cell vitality was calculated by exclusion with Trypan blue, whilst the ratio of the circulating polymorphonucleates was estimated on the cytocentrifugate after staining with Diff Quick.
In the CXCL8 induced chemotaxis assay human recombinant CXCL8 (Pepro Tech) was used as stimulating agents in the chemotaxis experiments: the lyophilized protein was dissolved in a volume of HBSS containing 0.2% bovin serum albumin (BSA) so thus to obtain a stock solution having a concentration of 10^−5 M to be diluted in HBSS to a concentration of 10^−8 M, for the chemotaxis assays.
(§2) In the chemotaxis experiments, the PMNs were incubated with the compounds of the invention of formula (I) for 15′ at 37° C. in an atmosphere containing 5% CO2.
(§3) During the chemotaxis assay [W. Falket et al., J. Immunol. Methods, 33, 239, 1980] PVP-free filters with a porosity of 5 μm and microchambers suitable for replication were used.
(§4) The compounds of the invention in formula (I) were evaluated at a concentration ranging between 10^−6 and 10^−10 M; for this purpose they were added, at the same concentration, both to the lower pores and the upper pores of the microchamber. Evaluation of the ability of the compounds of the invention of formula (I) to inhibit the chemotaxis of human monocytes was carried out according to a disclosed method [Van Damme J. et al., Eur. J. Immunol., 19, 2367, 1989].

Data set [2] has as its system human PMNs. The experiment in a line: CXCL1 (GRO-α) induced human PMN chemotaxis inhibition. Particulars: hPMN chemotaxis, compound at 10^−8 M; for inhibition at 0.01 µM: Homo sapiens. The data set is classed as cell-based. How it is done: as §1
GRO-α induced chemotaxis inhibition was evaluated in an analogous assay.
as §2, §3, §4

This is an account of results in patent US7868046B2, “(2R)-2-[(4-sulfonyl) aminophenyl] propanamides and pharmaceutical compositions containing them” (Dompe' Pha.r.ma S.p.A., priority 2006, dated 2011).

Each structure is given as a SMILES string.

The inhibition is the share of the control response that was lost under treatment. A higher inhibition goes with strong suppression. As a reminder, the melting point is the temperature of the solid-liquid transition.

With `CC(C)S(=O)(=O)Nc1ccc([C@@H](C)C(=O)N[C@@H](C)C(N)=O)cc1` [Compound 15, (2R)—N-[(1S)-2-amino-1-methyl-2-oxoethyl]-2-{4-[(isopropylsulfonyl]amino}phenyl) propanamide], the “CXCL8 (% inhibition at 10^−7 M)” value in the data set with human PMNs [1] was determined as 10 ± 8%. Besides, the “CXCL1 (% inhibition at 10^−8 M)” value with human PMNs [2] is 58 ± 2%.
Turning to `C[C@@H](C(=O)NC1CC1)c1ccc(NS(=O)(=O)c2ccccc2Cl)cc1` [Compound 19, (2R)-2-{4-{[(2-chlorophenyl)sulfonyl]amino}phenyl)-N-cyclopropylpropanamide], in the data set with human PMNs [1], testing at 0.1 µM gave an inhibition of 19 ± 4%. Further, testing at 0.01 µM with human PMNs [2] gave an inhibition of 60 ± 8%.
Turning to `C[C@@H](C(=O)NCCOCCO)c1ccc(NS(=O)(=O)c2ccccc2Cl)cc1` [Compound 18, (2R)-2-{4-{[(2-chlorophenyl)sulfonyl]amino}phenyl)-N-[2-(2-hydroxyethoxy)ethyl]propanamide], the inhibition at 0.1 µM in the data set with human PMNs [1] worked out at 6 ± 7%. The inhibition at 0.01 µM in the data set with human PMNs [2] came to 59 ± 5%.
With `CC(C)S(=O)(=O)Nc1ccc([C@@H](C)C(N)=O)cc1` [Compound 1, (2R)-2-{4-[(Isopropylsulfonyl]amino}phenyl)propanamide], the melting point was in the range of 125 to 127 °C. In the data set with human PMNs [1], this compound came in with an inhibition at 0.1 µM of 7 ± 18%. The compound further yielded an inhibition at 0.01 µM with human PMNs [2] of 67 ± 7%.
For `C[C@@H](C(N)=O)c1ccc(NS(=O)(=O)Cc2ccccc2)cc1` [Compound 8, (2R)-2-(4-[(benzylsulfonyl]amino}phenyl)propanamide] the same measures were 68 to 70 °C, 14 ± 9% and 58 ± 6%.
For `COc1ccc(S(=O)(=O)Nc2ccc([C@@H](C)C(N)=O)cc2)cc1` [Compound 7, (2R)-2-{4-{[(4-methoxylphenyl)sulfonyl]amino}phenyl)propanamide] the same measures were 118 to 120 °C, 9 ± 7% and 71 ± 11%.
Turning to `C[C@@H](C(N)=O)c1ccc(NS(=O)(=O)C(F)(F)F)cc1` [Compound 13, (2R)-2-(4-{[(trifluoromethyl)sulfonyl]amino}phenyl)propanamide], the inhibition at 0.1 µM with human PMNs [1] worked out at 24 ± 7%. In addition, the inhibition at 0.01 µM in the data set on human PMNs [2] turned out to be 75 ± 11%.
For `C[C@@H](C(=O)Nc1nc(C(F)(F)F)cs1)c1ccc(NS(=O)(=O)c2ccccc2Cl)cc1` [Compound 17, (2R)-2-{4-{[(2-chlorophenyl)sulfonyl]amino}phenyl)-N-[4-(trifluoromethyl)-1,3-thiazol-2-yl]propanamide] the same measures were 14 ± 11% and 40 ± 12%.
`C[C@@H](C(N)=O)c1ccc(NS(=O)(=O)c2c(Cl)cccc2Cl)cc1` [Compound 3, (2R)-2-{4-{[(2,6-dichlorophenyl)sulfonyl]amino}phenyl)propanamide]: the inhibition at 0.1 µM in the data set with human PMNs [1] came out at 14 ± 5%. In the data set with human PMNs [2], 0.01 µM produced 39 ± 10% inhibition.
Regarding `CNC(=O)[C@H](C)c1ccc(NS(=O)(=O)C(C)C)cc1` [Compound 14, (2R)-2-{4-[(isopropylsulfonyl]amino}phenyl)-N-methylpropanamide], the inhibition at 0.1 µM in the data set with human PMNs [1] was found to be 8 ± 9%. Besides, 0.01 µM produced 64 ± 8% inhibition in the data set on human PMNs [2].
For `C[C@@H](C(N)=O)c1ccc(NS(C)(=O)=O)cc1` [Compound 4, (2R)-2-{4-[(methylsulfonyl)amino]phenyl}propanamide] the same measures were 10 ± 7% and 75 ± 7%.
As to `C[C@@H](C(N)=O)c1ccc(NS(=O)(=O)c2ccc(C(F)(F)F)cc2)cc1` [Compound 10, (2R)-2-(4-{[(4-(trifluoromethyl)phenyl]sulfonyl}amino)phenyl]propanamide], the melting point was 178 to 180 °C. This compound showed an inhibition at 0.1 µM with human PMNs [1] of 15 ± 7%. Moreover, testing at 0.01 µM in the data set with human PMNs [2] gave an inhibition of 69 ± 5%.
The compound `C[C@@H](C(N)=O)c1ccc(NS(=O)(=O)c2ccc(Cl)cc2)cc1` [Compound 9, (2R)-2-(4-{[(4-chlorophenyl)sulfonyl]amino}phenyl)propanamide] came in with a melting point of 150 to 153 °C. Moreover, in the data set with human PMNs [1], 0.1 µM produced 20 ± 4% inhibition. This compound gave an inhibition at 0.01 µM in the data set with human PMNs [2] of 53 ± 12%.
The like results for `Cc1ccc(S(=O)(=O)Nc2ccc([C@@H](C)C(N)=O)cc2)cc1` [Compound 6, (2R)-2-{4-{[(4-methylphenyl)sulfonyl]amino}phenyl)propanamide] were, in that order, 138 to 140 °C, 12 ± 10% and 65 ± 4%.
The compound `CC(C)S(=O)(=O)Nc1ccc([C@@H](C)C(=O)Nc2nc(C(F)(F)F)cs2)cc1` [Compound 16, (2R)-2-{4-[(isopropylsulfonyl]amino}phenyl)-N-[4-(trifluoromethyl)-1,3-thiazol-2-yl]propanamide] had an inhibition at 0.1 µM in the data set with human PMNs [1] of 11 ± 7%. Moreover, at 0.01 µM the inhibition in the data set on human PMNs [2] was 49 ± 10%.
`C[C@@H](C(N)=O)c1ccc(NS(=O)(=O)c2cccs2)cc1` [Compound 11, (2R)-2-{4-[(thien-2ylsulfonyl)amino]phenyl}propanamide] gave a melting point of 58 to 60 °C. In the data set on human PMNs [1], this compound came in with an inhibition at 0.1 µM of 17 ± 4%. The same compound registered an inhibition at 0.01 µM with human PMNs [2] of 50 ± 2%.
With `C[C@@H](C(N)=O)c1ccc(NS(=O)(=O)C2CCCC2)cc1` [Compound 12, (2R)-2-{4-[(cyclopentylsulfonyl)amino]phenyl}propanamide], in the data set on human PMNs [1], testing at 0.1 µM gave an inhibition of 21 ± 10%. The compound also yielded an inhibition at 0.01 µM in the data set on human PMNs [2] of 67 ± 7%.
As for `C[C@@H](C(N)=O)c1ccc(NS(=O)(=O)c2ccccc2)cc1` [Compound 5, (2R)-2-{4-[(phenylsulfonyl)amino]phenyl}propanamide], the melting point lay within 152 to 153 °C. In the data set with human PMNs [1], this compound displayed an inhibition at 0.1 µM of 15 ± 10%. Moreover, at 0.01 µM the inhibition in the data set on human PMNs [2] was 44 ± 9%.
The compound `C[C@@H](C(N)=O)c1ccc(NS(=O)(=O)c2ccccc2Cl)cc1` [Compound 2, (2R)-2-{4-{[(2-chlorophenyl)sulfonyl]amino}phenyl)propanamide] registered an inhibition at 0.1 µM in the data set with human PMNs [1] of 19 ± 5%. The compound further registered an inhibition at 0.01 µM in the data set on human PMNs [2] of 41 ± 7%.
